Columns and labels:
[1] = Biodistribution bioassay of I-123-labeled compounds in rats, 5 minutes after tail vein injection (blood, brain, heart, stomach activity); assay type: in vivo, Female Sprague-Dawley rats; settings: rat; for Percent Dose/g. at 5 min. Blood / Percent Dose/g. at 5 min. Brain / Percent Dose/g. at 5 min. Heart: 0.05 to 1.0 mCi, I-123-labeled
Experimental: Bioassays were performed utilizing compounds from the foregoing examples labeled with I-123 in accordance with the method described in Example 11. Female Sprague-Dawley rats weighing approximately 150 g. were anesthetized with sodium pentobarbital and were injected in a tail vein with from 0.05 to 1.0 mCi (in a volume of 0.2 to 0.5 ml) of the I-123-labeled compound. Two specimens were utilized for each test.
The animals were sacrificed at 5 minutes post injection, the tails discarded and the amount of activity in various organs determined. Each organ was counted at a standardized geometry with a thallium iodide-activated sodium iodide crystal scintillation counter adjusted for the 159 keV emission of I-123. The organs were also weighed to one thousandth of a gram and the activity calculated as a percent of administered dose per gram organ weight.
The ratio of brain-to-blood activity was calculated as a percent of administered dose per gram. The important determinations are the amount of activity in the brain and the brain/blood ratio. The amount of activity in the stomach is related to loss of the I-123-label. For comparative purposes, I-123 antipyrine was utilized as a standard.

[2] = prior art brain imaging agent; cited from earlier work
[3] = i.v. tail vein, ratio of percent dose per gram
[4] = i.v. tail vein, stomach, related to loss of the I-123-label

Percent Dose in Stomach ([1]; in vivo, iv) [Percent Dose]	Ratio Brain/Blood ([1]; in vivo, iv)	Ratio Heart/Blood ([1]; in vivo, iv)	Molecule	loss of the iodine label in the brain [2]	Percent Dose/g. at 5 min. Blood ([1]; i.v. tail vein) [Percent Dose/g.]	Percent Dose/g. at 5 min. Brain ([1]; i.v. tail vein) [Percent Dose/g.]	Percent Dose/g. at 5 min. Heart ([1]; i.v. tail vein) [Percent Dose/g.]	Ratio Brain/Blood [1, 3]	Ratio Heart/Blood [1, 3]	Percent Dose in Stomach [1, 4] [Percent Dose]
0.81	0.14	0.59	CCOC(=O)c1ccccc1[123I] [Example 2, ethyl o-iodobenzoate]							
0.92	0.20	0.60	O=C(Oc1ccccc1)c1ccccc1[123I] [Example 6, phenyl o-iodobenzoate]							
1.46	0.25	0.65	O=C(OCc1ccccc1)c1ccccc1[123I] [Example 7, benzyl o-iodobenzoate]							
0.77	0.08	0.51	O=C(Oc1cccc(O)c1O)c1ccccc1[123I] [Example 8, pyrogallyl o-iodobenzoate]							
0.92	0.12	0.53	CCCCCCCCCCCCCCCCCCOC(=O)c1ccccc1[123I] [Example 10, octadecyl o-iodobenzoate]							
2.23			Cc1c([123I])c(=O)n(-c2ccccc2)n1C [^I 123-iodoantipyrine, 4-iodoantipyrine, reference compound]	significant loss of the iodine label in the brain						
			glyceryl o-iodobenzoate [Example 5]		1.67	0.73	1.12	0.43	0.67	0.79
			pyridoxyl o-iodobenzoate [Example 9]		1.61	0.31	1.02	0.19	0.63	0.93

— patent US4284619A, “Esters useful as brain imaging agents” (Medi-Physics, Inc., priority 1978, dated 1981)
